{"source": "paper PMC8212709", "about": "(Clinical and Translational Science, 2021)", "test": "Phase I SRD/MRD safety and tolerability", "assay_type": "in vivo, human (healthy subjects)", "key": {"[1]": {"conditions": "SRD single dose 17.5 mg (n = 6)"}}, "data": [{"smiles": "C=CC(=O)N1CC[C@H](Oc2nc(-c3n[nH]c(=O)[nH]3)cc3ccccc23)C1", "note": "[TAK‐020]", "values": [{"measurement": "TEAEs", "setting": "SRD single dose 0.1 mg (n = 6)", "value": "0 n (%)"}, {"measurement": "TEAEs Leading to DC", "setting": "SRD single dose 0.1 mg (n = 6)", "value": "0 n (%)"}, {"measurement": "TEAEs, Mild", "setting": "SRD single dose 0.1 mg (n = 6)", "value": "0 n (%)"}, {"measurement": "TEAEs, Moderate", "setting": "SRD single dose 0.1 mg (n = 6)", "value": "0 n (%)"}, {"measurement": "TEAEs, Not related", "setting": "SRD single dose 0.1 mg (n = 6)", "value": "0 n (%)"}, {"measurement": "TEAEs, Related", "setting": "SRD single dose 0.1 mg (n = 6)", "value": "0 n (%)"}, {"measurement": "TEAEs, Severe", "setting": "SRD single dose 0.1 mg (n = 6)", "value": "0 n (%)"}, {"measurement": "Deaths", "setting": "SRD single dose 0.5 mg (n = 6)", "value": "0 n (%)"}, {"measurement": "Serious TEAEs", "setting": "SRD single dose 0.5 mg (n = 6)", "value": "0 n (%)"}, {"measurement": "Serious TEAEs, Not related", "setting": "SRD single dose 0.5 mg (n = 6)", "value": "0 n (%)"}, {"measurement": "Serious TEAEs, Related", "setting": "SRD single dose 0.5 mg (n = 6)", "value": "0 n (%)"}, {"measurement": "TEAEs", "setting": "SRD single dose 0.5 mg (n = 6)", "value": "0 n (%)"}, {"measurement": "TEAEs Leading to DC", "setting": "SRD single dose 0.5 mg (n = 6)", "value": "0 n (%)"}, {"measurement": "TEAEs, Mild", "setting": "SRD single dose 0.5 mg (n = 6)", "value": "0 n (%)"}, {"measurement": "TEAEs, Moderate", "setting": "SRD single dose 0.5 mg (n = 6)", "value": "0 n (%)"}, {"measurement": "TEAEs, Not related", "setting": "SRD single dose 0.5 mg (n = 6)", "value": "0 n (%)"}, {"measurement": "TEAEs, Related", "setting": "SRD single dose 0.5 mg (n = 6)", "value": "0 n (%)"}, {"measurement": "TEAEs, Severe", "setting": "SRD single dose 0.5 mg (n = 6)", "value": "0 n (%)"}, {"measurement": "Deaths", "setting": "SRD single dose 2.5 mg (n = 6)", "value": "0 n (%)"}, {"measurement": "Serious TEAEs", "setting": "SRD single dose 2.5 mg (n = 6)", "value": "0 n (%)"}, {"measurement": "Serious TEAEs, Not related", "setting": "SRD single dose 2.5 mg (n = 6)", "value": "0 n (%)"}, {"measurement": "Serious TEAEs, Related", "setting": "SRD single dose 2.5 mg (n = 6)", "value": "0 n (%)"}, {"measurement": "TEAEs", "setting": "SRD single dose 2.5 mg (n = 6)", "value": "1 (16.7) n (%)"}, {"measurement": "TEAEs Leading to DC", "setting": "SRD single dose 2.5 mg (n = 6)", "value": "0 n (%)"}, {"measurement": "TEAEs, Mild", "setting": "SRD single dose 2.5 mg (n = 6)", "value": "1 (16.7) n (%)"}, {"measurement": "TEAEs, Moderate", "setting": "SRD single dose 2.5 mg (n = 6)", "value": "0 n (%)"}, {"measurement": "TEAEs, Not related", "setting": "SRD single dose 2.5 mg (n = 6)", "value": "0 n (%)"}, {"measurement": "TEAEs, Related", "setting": "SRD single dose 2.5 mg (n = 6)", "value": "1 (16.7) n (%)"}, {"measurement": "TEAEs, Severe", "setting": "SRD single dose 2.5 mg (n = 6)", "value": "0 n (%)"}, {"measurement": "Deaths", "setting": "SRD single dose 4.4 mg (n = 6)", "value": "0 n (%)"}, {"measurement": "Serious TEAEs", "setting": "SRD single dose 4.4 mg (n = 6)", "value": "0 n (%)"}, {"measurement": "Serious TEAEs, Not related", "setting": "SRD single dose 4.4 mg (n = 6)", "value": "0 n (%)"}, {"measurement": "Serious TEAEs, Related", "setting": "SRD single dose 4.4 mg (n = 6)", "value": "0 n (%)"}, {"measurement": "TEAEs", "setting": "SRD single dose 4.4 mg (n = 6)", "value": "0 n (%)"}, {"measurement": "TEAEs Leading to DC", "setting": "SRD single dose 4.4 mg (n = 6)", "value": "0 n (%)"}, {"measurement": "TEAEs, Mild", "setting": "SRD single dose 4.4 mg (n = 6)", "value": "0 n (%)"}, {"measurement": "TEAEs, Moderate", "setting": "SRD single dose 4.4 mg (n = 6)", "value": "0 n (%)"}, {"measurement": "TEAEs, Not related", "setting": "SRD single dose 4.4 mg (n = 6)", "value": "0 n (%)"}, {"measurement": "TEAEs, Related", "setting": "SRD single dose 4.4 mg (n = 6)", "value": "0 n (%)"}, {"measurement": "TEAEs, Severe", "setting": "SRD single dose 4.4 mg (n = 6)", "value": "0 n (%)"}, {"measurement": "Deaths", "setting": "SRD single dose 8.8 mg (n = 6)", "value": "0 n (%)"}, {"measurement": "Serious TEAEs", "setting": "SRD single dose 8.8 mg (n = 6)", "value": "0 n (%)"}, {"measurement": "Serious TEAEs, Not related", "setting": "SRD single dose 8.8 mg (n = 6)", "value": "0 n (%)"}, {"measurement": "Serious TEAEs, Related", "setting": "SRD single dose 8.8 mg (n = 6)", "value": "0 n (%)"}, {"measurement": "TEAEs", "setting": "SRD single dose 8.8 mg (n = 6)", "value": "1 (16.7) n (%)"}, {"measurement": "TEAEs Leading to DC", "setting": "SRD single dose 8.8 mg (n = 6)", "value": "0 n (%)"}, {"measurement": "TEAEs, Mild", "setting": "SRD single dose 8.8 mg (n = 6)", "value": "1 (16.7) n (%)"}, {"measurement": "TEAEs, Moderate", "setting": "SRD single dose 8.8 mg (n = 6)", "value": "0 n (%)"}, {"measurement": "TEAEs, Not related", "setting": "SRD single dose 8.8 mg (n = 6)", "value": "0 n (%)"}, {"measurement": "TEAEs, Related", "setting": "SRD single dose 8.8 mg (n = 6)", "value": "1 (16.7) n (%)"}, {"measurement": "TEAEs, Severe", "setting": "SRD single dose 8.8 mg (n = 6)", "value": "0 n (%)"}, {"measurement": "Deaths", "setting": "[1]", "value": "0 n (%)"}, {"measurement": "Serious TEAEs", "setting": "[1]", "value": "0 n (%)"}, {"measurement": "Serious TEAEs, Not related", "setting": "[1]", "value": "0 n (%)"}, {"measurement": "Serious TEAEs, Related", "setting": "[1]", "value": "0 n (%)"}, {"measurement": "TEAEs", "setting": "[1]", "value": "0 n (%)"}, {"measurement": "TEAEs Leading to DC", "setting": "[1]", "value": "0 n (%)"}, {"measurement": "TEAEs, Mild", "setting": "[1]", "value": "0 n (%)"}, {"measurement": "TEAEs, Moderate", "setting": "[1]", "value": "0 n (%)"}, {"measurement": "TEAEs, Not related", "setting": "[1]", "value": "0 n (%)"}, {"measurement": "TEAEs, Related", "setting": "[1]", "value": "0 n (%)"}, {"measurement": "TEAEs, Severe", "setting": "[1]", "value": "0 n (%)"}, {"measurement": "Deaths", "setting": "SRD single dose 35 mg (n = 6)", "value": "0 n (%)"}, {"measurement": "Serious TEAEs", "setting": "SRD single dose 35 mg (n = 6)", "value": "0 n (%)"}, {"measurement": "Serious TEAEs, Not related", "setting": "SRD single dose 35 mg (n = 6)", "value": "0 n (%)"}, {"measurement": "Serious TEAEs, Related", "setting": "SRD single dose 35 mg (n = 6)", "value": "0 n (%)"}, {"measurement": "TEAEs", "setting": "SRD single dose 35 mg (n = 6)", "value": "0 n (%)"}, {"measurement": "TEAEs Leading to DC", "setting": "SRD single dose 35 mg (n = 6)", "value": "0 n (%)"}, {"measurement": "TEAEs, Mild", "setting": "SRD single dose 35 mg (n = 6)", "value": "0 n (%)"}, {"measurement": "TEAEs, Moderate", "setting": "SRD single dose 35 mg (n = 6)", "value": "0 n (%)"}, {"measurement": "TEAEs, Not related", "setting": "SRD single dose 35 mg (n = 6)", "value": "0 n (%)"}, {"measurement": "TEAEs, Related", "setting": "SRD single dose 35 mg (n = 6)", "value": "0 n (%)"}, {"measurement": "TEAEs, Severe", "setting": "SRD single dose 35 mg (n = 6)", "value": "0 n (%)"}, {"measurement": "Deaths", "setting": "SRD single dose 70 mg (n = 6)", "value": "0 n (%)"}, {"measurement": "Serious TEAEs", "setting": "SRD single dose 70 mg (n = 6)", "value": "0 n (%)"}, {"measurement": "Serious TEAEs, Not related", "setting": "SRD single dose 70 mg (n = 6)", "value": "0 n (%)"}, {"measurement": "Serious TEAEs, Related", "setting": "SRD single dose 70 mg (n = 6)", "value": "0 n (%)"}, {"measurement": "TEAEs", "setting": "SRD single dose 70 mg (n = 6)", "value": "3 (50.0) n (%)"}, {"measurement": "TEAEs Leading to DC", "setting": "SRD single dose 70 mg (n = 6)", "value": "0 n (%)"}, {"measurement": "TEAEs, Mild", "setting": "SRD single dose 70 mg (n = 6)", "value": "3 (50.0) n (%)"}, {"measurement": "TEAEs, Moderate", "setting": "SRD single dose 70 mg (n = 6)", "value": "0 n (%)"}, {"measurement": "TEAEs, Not related", "setting": "SRD single dose 70 mg (n = 6)", "value": "2 (33.3) n (%)"}, {"measurement": "TEAEs, Related", "setting": "SRD single dose 70 mg (n = 6)", "value": "1 (16.7) n (%)"}, {"measurement": "TEAEs, Severe", "setting": "SRD single dose 70 mg (n = 6)", "value": "0 n (%)"}, {"measurement": "Deaths", "setting": "SRD single dose 105 mg (n = 6)", "value": "0 n (%)"}, {"measurement": "Serious TEAEs", "setting": "SRD single dose 105 mg (n = 6)", "value": "0 n (%)"}, {"measurement": "Serious TEAEs, Not related", "setting": "SRD single dose 105 mg (n = 6)", "value": "0 n (%)"}, {"measurement": "Serious TEAEs, Related", "setting": "SRD single dose 105 mg (n = 6)", "value": "0 n (%)"}, {"measurement": "TEAEs", "setting": "SRD single dose 105 mg (n = 6)", "value": "1 (16.7) n (%)"}, {"measurement": "TEAEs Leading to DC", "setting": "SRD single dose 105 mg (n = 6)", "value": "0 n (%)"}, {"measurement": "TEAEs, Mild", "setting": "SRD single dose 105 mg (n = 6)", "value": "1 (16.7) n (%)"}, {"measurement": "TEAEs, Moderate", "setting": "SRD single dose 105 mg (n = 6)", "value": "0 n (%)"}, {"measurement": "TEAEs, Not related", "setting": "SRD single dose 105 mg (n = 6)", "value": "1 (16.7) n (%)"}, {"measurement": "TEAEs, Related", "setting": "SRD single dose 105 mg (n = 6)", "value": "0 n (%)"}, {"measurement": "TEAEs, Severe", "setting": "SRD single dose 105 mg (n = 6)", "value": "0 n (%)"}, {"measurement": "percentage of subjects who experienced TEAEs", "setting": "SRD, overall TAK‐020 group", "value": 11.1, "unit": "%"}]}]}
